The source of these data is PubChem BioAssay (NCI).

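Grown in 96-well plates, cells were treated for 48 hours with each compound at five concentrations. Insufficient inhibition: endpoint recorded as highest concentration tested. At the TGI there is no net growth.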

Some test systems named below: OVCAR-5 ovarian; TK-10 renal; DU-145 prostate; 786-0 renal; HOP-62 NSCLC; HOP-92 NSCLC; M14 melanoma; U251 CNS; K-562 leukemia; UACC-62 melanoma; COLO 205 colon; A549 NSCLC; IGROV1 ovarian; BT-549 breast; SK-MEL-5 melanoma; NCI-H226 lung; HCT-116 colon; CAKI-1 renal; EKVX NSCLC; OVCAR-4 ovarian.
What all share (experiment): NCI anticancer screen, dose series, 48 h

Consider `NCCNCCCNC(=O)c1cc(-c2ccccc2)nc2ccccc12`, for which the TGI in the assay with OVCAR-5 ovarian is over 100 µM; with TK-10 renal it was over 100 µM; in the assay on DU-145 prostate, over 100 µM; with 786-0 renal, 61.8 µM; with HOP-62 NSCLC it was over 100 µM; in the assay with HOP-92 NSCLC it was 55.4 µM. For the same compound, the TGI with M14 melanoma is 28.3 µM; in the assay on U251 CNS it was 36.6 µM; in the assay on K-562 leukemia, 54.9 µM; in the assay with UACC-62 melanoma, 46.3 µM; in the assay on COLO 205 colon, 30.9 µM; in the assay on A549 NSCLC, over 100 µM. Moreover, the TGI is over 100 µM with IGROV1 ovarian; over 100 µM with BT-549 breast; 30.5 µM in the assay on SK-MEL-5 melanoma; over 100 µM with NCI-H226 lung; over 100 µM in the assay with HCT-116 colon; over 100 µM in the assay on CAKI-1 renal. The compound also displayed a TGI in the assay with EKVX NSCLC of over 100 µM.

`CC(=O)N(CCCCNC(=O)C(F)(F)F)CCCNC(=O)C(F)(F)F`: the TGI with OVCAR-5 ovarian, in the assay with TK-10 renal, with DU-145 prostate, with 786-0 renal, with HOP-62 NSCLC and in the assay on HOP-92 NSCLC was over 100 µM each time. Besides, the TGI in the assay on M14 melanoma, in the assay on U251 CNS, with K-562 leukemia, in the assay on UACC-62 melanoma, in the assay with COLO 205 colon and with A549 NSCLC was over 100 µM in each case. Besides, the TGI with IGROV1 ovarian, in the assay with BT-549 breast, with SK-MEL-5 melanoma, in the assay on NCI-H226 lung, in the assay with HCT-116 colon and in the assay with OVCAR-4 ovarian was over 100 µM throughout. Moreover, the TGI in the assay with EKVX NSCLC is over 100 µM.

On to `Cc1[nH]n(-c2ccccc2)c(=O)c1C(N(CCc1ccccc1)C1=NCC(C)S1)(C(F)(F)F)C(F)(F)F` (centres undefined), for which the TGI in the assay with OVCAR-5 ovarian was 88 µM; with TK-10 renal it was over 100 µM; in the assay on DU-145 prostate, over 100 µM; in the assay with 786-0 renal, 34.9 µM; with HOP-62 NSCLC it was 87.6 µM; in the assay on HOP-92 NSCLC, 58.5 µM. The TGI in the assay on M14 melanoma was 32.2 µM; in the assay with U251 CNS, 31.2 µM; in the assay with K-562 leukemia it was over 100 µM; in the assay on UACC-62 melanoma, 24 µM; in the assay with COLO 205 colon it was 18.7 µM; with A549 NSCLC it was 83.7 µM. The TGI is 49.1 µM with BT-549 breast; 21.5 µM with SK-MEL-5 melanoma; 29.5 µM with NCI-H226 lung; 23.8 µM with HCT-116 colon; over 100 µM with OVCAR-4 ovarian; over 100 µM in the assay with CAKI-1 renal. Also, the TGI in the assay with EKVX NSCLC is 36.4 µM.

In the case of `N#C/C(C(=O)Nc1ccc(Cl)cc1)=C(/N)N1CCOCC1`, the TGI with OVCAR-5 ovarian, with DU-145 prostate, in the assay with 786-0 renal, in the assay on HOP-62 NSCLC, in the assay on HOP-92 NSCLC and in the assay with M14 melanoma was over 100 µM in each case. Besides, the TGI in the assay on U251 CNS, in the assay with K-562 leukemia, in the assay with UACC-62 melanoma, in the assay with COLO 205 colon, in the assay with A549 NSCLC and in the assay on IGROV1 ovarian was over 100 µM in each case. For the same compound, the TGI with BT-549 breast, in the assay on SK-MEL-5 melanoma, in the assay with NCI-H226 lung, with HCT-116 colon, in the assay with CAKI-1 renal and in the assay with EKVX NSCLC was over 100 µM throughout.

As for `N=c1oc2ccc(Cl)cc2cc1C(N)=O`, the TGI with OVCAR-5 ovarian was over 100 µM; in the assay on DU-145 prostate it was over 100 µM; in the assay with 786-0 renal, 73 µM; in the assay with HOP-92 NSCLC, over 100 µM; in the assay on M14 melanoma it was over 100 µM; with U251 CNS, over 100 µM. Moreover, the TGI was over 100 µM with K-562 leukemia; 41.3 µM with UACC-62 melanoma; over 100 µM with COLO 205 colon; over 100 µM in the assay with A549 NSCLC; over 100 µM in the assay on IGROV1 ovarian; over 100 µM in the assay with BT-549 breast. For the same compound, the TGI was 47 µM in the assay on SK-MEL-5 melanoma; 78.1 µM with NCI-H226 lung; 61.7 µM with HCT-116 colon; 85.9 µM with OVCAR-4 ovarian; over 100 µM with CAKI-1 renal.

For the compound `O=C(O)c1nc2ccccc2nc1NCc1ccc(F)cc1`, the TGI in the assay on OVCAR-5 ovarian, with TK-10 renal, in the assay on DU-145 prostate, with 786-0 renal, in the assay on HOP-62 NSCLC and in the assay with HOP-92 NSCLC was over 100 µM each time. In addition, the TGI in the assay with M14 melanoma is over 100 µM; in the assay with U251 CNS, over 100 µM; with K-562 leukemia it was over 100 µM; with UACC-62 melanoma, over 100 µM; in the assay on COLO 205 colon, 93.5 µM; with A549 NSCLC, over 100 µM. For the same compound, the TGI with IGROV1 ovarian, in the assay with BT-549 breast, with SK-MEL-5 melanoma, with NCI-H226 lung, with HCT-116 colon and with CAKI-1 renal was over 100 µM each time. In addition, in the assay with EKVX NSCLC, the TGI was over 100 µM.

In the case of `CCOC(=O)C(NC(=O)c1cccc(Cl)c1)(N1CCN(c2cc3c(cc2F)c(=O)c(C(=O)O)cn3C2CC2)CC1)C(F)(F)F` (centres undefined), the TGI in the assay with OVCAR-5 ovarian came to 31.1 µM; in the assay with DU-145 prostate, 70.5 µM; in the assay with 786-0 renal, 28.3 µM; in the assay on HOP-62 NSCLC it was 50 µM; in the assay with HOP-92 NSCLC it was 34.6 µM; in the assay with M14 melanoma, 33.2 µM. Moreover, the TGI with U251 CNS was found to be 18.3 µM; in the assay on K-562 leukemia it was 20.1 µM; with UACC-62 melanoma, 42.2 µM; in the assay on COLO 205 colon, 30.2 µM; in the assay with A549 NSCLC, 50.5 µM; in the assay on IGROV1 ovarian, 41.5 µM. Moreover, the TGI in the assay with BT-549 breast amounted to 38.4 µM; with SK-MEL-5 melanoma it was 25.5 µM; with NCI-H226 lung, 40.3 µM; with HCT-116 colon, 25.5 µM; with OVCAR-4 ovarian, 39 µM; in the assay on CAKI-1 renal it was 36.2 µM. In the assay with EKVX NSCLC, this compound had a TGI of 55.2 µM.

For `Nc1c(Br)cc(-c2nc3ccccc3s2)cc1Br`, the TGI in the assay with OVCAR-5 ovarian, in the assay on TK-10 renal, in the assay on DU-145 prostate, with 786-0 renal, in the assay with HOP-62 NSCLC and in the assay on HOP-92 NSCLC was over 100 µM throughout. Moreover, the TGI in the assay with M14 melanoma, with U251 CNS, in the assay with K-562 leukemia, with UACC-62 melanoma, in the assay with COLO 205 colon and in the assay with A549 NSCLC was over 100 µM in each case. Also, the TGI with IGROV1 ovarian, in the assay with BT-549 breast, with SK-MEL-5 melanoma, in the assay with NCI-H226 lung, in the assay with HCT-116 colon and in the assay on CAKI-1 renal was over 100 µM throughout. This compound also gave a TGI with EKVX NSCLC of over 100 µM.
